Where two headings read alike, the source gives them in different places.

The record followed here is patent publication US11767322B2 (BRISTOL-MYERS SQUIBB COMPANY, priority 2020, dated 2023).

Test [1] deals with T1, His-GST-TVMV-hRIPK1(1-324) (Homo sapiens, UniProt Q13546).
T1 construct: The coding region of human RIPK1(1-324) flanked by NdeI site at 5′ end; made in house; host or cells: Spodoptera frugiperda Sf9 insect cells (baculovirus, Bac-to-Bac)
T1 sequence (Q13546 1-324): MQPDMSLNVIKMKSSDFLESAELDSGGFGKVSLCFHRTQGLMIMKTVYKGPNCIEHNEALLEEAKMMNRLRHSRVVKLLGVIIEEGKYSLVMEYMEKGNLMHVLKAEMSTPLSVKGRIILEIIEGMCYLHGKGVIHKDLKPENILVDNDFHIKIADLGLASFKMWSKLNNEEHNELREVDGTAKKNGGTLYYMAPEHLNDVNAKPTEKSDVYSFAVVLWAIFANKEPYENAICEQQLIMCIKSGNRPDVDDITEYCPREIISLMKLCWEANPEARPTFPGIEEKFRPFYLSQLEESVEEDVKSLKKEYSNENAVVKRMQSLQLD
Briefly: biochemical. The format is binding.

The subject of test [2] is MLKL phosphorylation in HT29-L23 human colorectal adenocarcinoma cells. Briefly: MLKL phosphorylation high-content assay. The test is classed as cell-based.
Where [3] appears, read: HTRF probe displacement, 1 h at rt, read-out: RIPK1 IC50.
Setting [4] is: Homo sapiens, 6 h, read-out: pMLKL IC50, HT29-L23 cells, necroptosis induced with TNFα, SMAC mimetic and Z-VAD, 6 h, maximal inhibition defined by Nec1s.
Where [5] appears, read: read-out: pMLKL IC50, HT29-L23 cells, necroptosis induced with TNFα, SMAC mimetic and Z-VAD, 6 h, maximal inhibition defined by Nec1s.
The mark [6] stands for this setting: HT29-L23 cells, necroptosis induced with TNFα, SMAC mimetic and Z-VAD, 6 h, maximal inhibition defined by Nec1s, read-out: pMLKL IC50.

Take `Nc1nc2cc(-c3ccc(Cl)c(C(=O)NCC(F)(F)C(O)c4cccc(F)c4F)c3F)ccn2n1` (single isomer, unassigned) [Example 166, 3-(2-amino-[1,2,4]triazolo[1,5-a]pyridin-7-yl)-6-chloro-N-(3-(2,3-difluorophenyl)-2,2-difluoro-3-hydroxypropyl)-2-fluorobenzamide]: the IC50 in test [1] (setting [3]) was determined as 2.1 nM; in test [2] (setting [4]) it was 5.1 nM.
Turning to `COC(=O)c1ccc(CCCNC(=O)c2c(Cl)ccc(-c3ccn4nc(N)nc4c3)c2F)cc1` [Example 273, methyl 4-(3-(3-(2-amino-[1,2,4]triazolo[1,5-a]pyridin-7-yl)-6-chloro-2-fluorobenzamido)propyl)benzoate], the IC50 in test [1] (setting [3]) turned out to be 3.9 nM; in test [2] (setting [4]) it was 37 nM.
As to `[2H]C([2H])([2H])c1ccc(-c2ccn3nc(N)nc3c2)c(F)c1C(=O)NCC(F)(F)C(C)(O)c1ccc(Cl)cc1` (single isomer, unassigned) [Example 252, 3-(2-amino-[1,2,4]triazolo[1,5-a]pyridin-7-yl)-N-(3-(4-chlorophenyl)-2,2-difluoro-3-hydroxybutyl)-2-fluoro-6-(methyl-d3)benzamide], the IC50 turned out to be 7.2 nM in test [1] (setting [3]) and 2.7 nM in test [2] (setting [5]).
Turning to “(R)-3-(2-amino-[1,2,4]triazolo[1,5-a]pyridin-7-yl)-6-cyclopropyl-N-(2,2-difluoro-3-(4-fluorophenyl)-3-hydroxypropyl)-2-fluorobenzamide [Example 305]”, the half-inhibitory concentration (IC50) in test [1] (setting [3]) was 1.6 nM; in test [2] (setting [6]), 0.6 nM.
Consider `COc1ncc(-c2ccn3nc(N)nc3c2)cc1C(=O)NCCC(O)c1ccc(F)cc1` (stereo not shown) [Example 78], for which the IC50 came to 120 nM in test [1] (Table 23, representative compounds from WO2018/148626, read-out: RIPK1 IC50) and 146 nM in test [2] (Homo sapiens, Table 23, representative compounds from WO2018/148626, read-out: pMLKL IC50).
With `Cc1ccc(C(O)C(F)(F)CNC(=O)c2c(Cl)ccc(-c3ccn4nc(N)nc4c3)c2F)c(F)c1` (stereo not shown) [Example 182, 3-(2-amino-[1,2,4]triazolo[1,5-a]pyridin-7-yl)-6-chloro-N-(2,2-difluoro-3-(2-fluoro-4-methylphenyl)-3-hydroxypropyl)-2-fluorobenzamide], the values for the IC50 in test [1] (setting [3]) and in test [2] (setting [5]) were 1.2 nM and 2.9 nM, respectively.
As for `Cc1ccc(-c2ccn3nc(N)nc3c2)c(F)c1C(=O)NCCC(C)(F)c1ccc(Cl)cc1` (stereo not shown) [Example 228, 3-(2-amino-[1,2,4]triazolo[1,5-a]pyridin-7-yl)-N-(3-(4-chlorophenyl)-3-fluorobutyl)-2-fluoro-6-methylbenzamide], the 50% inhibitory concentration (IC50) in test [1] (setting [3]) is 0.9 nM; in test [2] (setting [4]) it was 1 nM.
Consider `Cc1ccc(-c2ccn3nc(N)nc3c2)c(F)c1C(=O)NCCC(O)c1ccc(C(F)(F)F)cc1` (stereo not shown) [Example 55, 3-(2-amino-[1,2,4]triazolo[1,5-a]pyridin-7-yl)-2-fluoro-N-(3-hydroxy-3-(4-(trifluoromethyl)phenyl)propyl)-6-methylbenzamide], for which the values for the half-inhibitory concentration (IC50) in test [1] (setting [3]) and in test [2] (setting [4]) were 0.3 nM and 0.9 nM, respectively.
Consider `Nc1nc2cc(-c3ccc(Cl)c(C(=O)NCC(F)(F)C(O)c4cc(F)ccc4F)c3F)ccn2n1` (single isomer, unassigned) [Example 177, 3-(2-amino-[1,2,4]triazolo[1,5-a]pyridin-7-yl)-6-chloro-N-(3-(2,5-difluorophenyl)-2,2-difluoro-3-hydroxypropyl)-2-fluorobenzamide], for which the results for the IC50 in test [1] (setting [3]) and in test [2] (setting [5]) were 1.8 nM and 23 nM, respectively.
Consider `Cc1ccc(-c2ccn3nc(N)nc3c2)c(F)c1C(=O)NCC(F)(F)C(N)c1ccc(F)cc1` (stereo not shown) [Example 275, N-(3-amino-2,2-difluoro-3-(4-fluorophenyl)propyl)-3-(2-amino-[1,2,4]triazolo[1,5-a]pyridin-7-yl)-2-fluoro-6-methylbenzamide], for which the IC50 in test [1] (setting [3]) worked out at 6.5 nM; in test [2] (setting [4]), 1.5 nM.
`Nc1nc2cc(-c3ccc(Cl)c(C(=O)NCCC(O)c4ccc(C(F)(F)F)cc4)c3F)ccn2n1` (single isomer, unassigned) [Example 86, 3-(2-amino-[1,2,4]triazolo[1,5-a]pyridin-7-yl)-6-chloro-2-fluoro-N-(3-hydroxy-3-(4-(trifluoromethyl)phenyl)propyl)benzamide]: the IC50 in test [1] (setting [3]) stood at 2.2 nM; in test [2] (setting [5]) it was 7.5 nM.
In the case of `Nc1nc2cc(-c3ccc(Cl)c(C(=O)NCC(F)(F)C(O)c4cccc(Cl)n4)c3F)ccn2n1` (single isomer, unassigned) [Example 262, 3-(2-amino-[1,2,4]triazolo[1,5-a]pyridin-7-yl)-6-chloro-N-(3-(6-chloropyridin-2-yl)-2,2-difluoro-3-hydroxypropyl)-2-fluorobenzamide], the IC50 is 14 nM in test [1] (setting [3]) and 45 nM in test [2] (setting [4]).
As to `Nc1nc2cc(-c3ccc(Cl)c(C(=O)NCC(F)(F)C(O)c4ccc(F)cc4F)c3F)ccn2n1` (single isomer, unassigned) [Example 178, 3-(2-amino-[1,2,4]triazolo[1,5-a]pyridin-7-yl)-6-chloro-N-(3-(2,4-difluorophenyl)-2,2-difluoro-3-hydroxypropyl)-2-fluorobenzamide], the IC50 came out at 0.9 nM in test [1] (setting [3]) and 22 nM in test [2] (setting [5]).
With `[2H]C([2H])([2H])c1ccc(-c2ccn3nc(N)nc3c2)c(F)c1C(=O)NCC(F)(F)C(O)(c1ccc(F)cc1)C([2H])([2H])[2H]` (single isomer, unassigned) [Example 243, 3-(2-amino-[1,2,4]triazolo[1,5-a]pyridin-7-yl)-N-(2,2-difluoro-3-(4-fluorophenyl)-3-hydroxybutyl-4,4,4-d3)-2-fluoro-6-(methyl-d3)benzamide], the IC50 in test [1] (setting [3]) is 4.7 nM; in test [2] (setting [4]), 1.2 nM.
Turning to `[2H]C([2H])([2H])C(O)(c1ccc(F)cc1)C(F)CNC(=O)c1c(C(F)F)ccc(-c2ccn3nc(N)nc3c2)c1F` (single isomer, unassigned) [Example 195, 3-(2-amino-[1,2,4]triazolo[1,5-a]pyridin-7-yl)-6-(difluoromethyl)-2-fluoro-N-(2-fluoro-3-(4-fluorophenyl)-3-hydroxybutyl-4,4,4-d3)benzamide], the IC50 in test [1] (setting [3]) stood at 8.4 nM; in test [2] (setting [4]) it was 1 nM.
With `Cc1cc(F)c(-c2ccn3nc(N)nc3c2)cc1C(=O)NCC(F)(F)C(C)(O)c1ccc(Cl)cc1` (single isomer, unassigned) [Example 226, 5-(2-amino-[1,2,4]triazolo[1,5-a]pyridin-7-yl)-N-(3-(4-chlorophenyl)-2,2-difluoro-3-hydroxybutyl)-4-fluoro-2-methylbenzamide], the concentration for half-maximal inhibition (IC50) in test [1] (setting [3]) worked out at 8.3 nM; in test [2] (setting [5]), 2.2 nM.
For the compound `[2H]C([2H])([2H])c1ccc(-c2ccn3nc(N)nc3c2)c(F)c1C(=O)NCC1(C(O)c2ccc(F)cc2)CC1` (single isomer, unassigned) [Example 308, 3-(2-amino-[1,2,4]triazolo[1,5-a]pyridin-7-yl)-2-fluoro-N-((1-((4-fluorophenyl) (hydroxy)methyl)cyclopropyl)methyl)-6-(methyl-d3)benzamide], the figures for the IC50 in test [1] (setting [3]) and in test [2] (setting [5]) were 12 nM and 9 nM, respectively.
Turning to `Cc1ccc(-c2ccn3nc(N)nc3c2C)c(F)c1C(=O)NCC[C@H](O)c1ccc(Cl)cc1` (single isomer, unassigned; enantiomer 1) [Example 137], the half-maximal inhibitory concentration (IC50) was determined as 9.7 nM in test [1] (setting [3]) and 0.9 nM in test [2] (setting [6]).
`Nc1nc2cc(-c3ccc(Cl)c(C(=O)NCC(F)(F)C(O)c4cccc(C(F)(F)F)n4)c3F)ccn2n1` (single isomer, unassigned) [Example 254, 3-(2-amino-[1,2,4]triazolo[1,5-a]pyridin-7-yl)-6-chloro-N-(2,2-difluoro-3-hydroxy-3-(6-(trifluoromethyl)pyridin-2-yl)propyl)-2-fluorobenzamide]: the IC50 in test [1] (setting [3]) was 3.5 nM; in test [2] (setting [5]), 4.1 nM.
Take `[2H]C([2H])([2H])c1ccc(-c2ccn3nc(N)nc3c2)c(F)c1C(=O)NC[C@H](F)[C@](C)(O)c1ccc(F)cc1` [Example 215, 3-(2-amino-[1,2,4]triazolo[1,5-a]pyridin-7-yl)-2-fluoro-N-((1S,3R)-2-fluoro-3-(4-fluorophenyl)-3-hydroxybutyl)-6-(methyl-d3)benzamide]: the IC50 in test [1] (setting [3]) is 8.7 nM; in test [2] (setting [4]), 6.6 nM.
For `Nc1nc2cc(-c3ccc(Cl)c(C(=O)NCC(F)(F)C(O)c4ccc(C(F)(F)F)cc4F)c3F)ccn2n1` (stereo not shown) [Example 164, 3-(2-amino-[1,2,4]triazolo[1,5-a]pyridin-7-yl)-6-chloro-N-(2,2-difluoro-3-(2-fluoro-4-(trifluoromethyl)phenyl)-3-hydroxypropyl)-2-fluorobenzamide], the concentration for half-maximal inhibition (IC50) is 2.8 nM in test [1] (setting [3]) and 2.9 nM in test [2] (setting [4]).
For the compound `Nc1nc2cc(-c3ccc(Cl)c(C(=O)NCCC(O)c4ccc(F)cc4)c3F)ccn2n1` (stereo not shown) [Example 78, 3-(2-amino-[1,2,4]triazolo[1,5-a]pyridin-7-yl)-6-chloro-2-fluoro-N-(3-(4-fluorophenyl)-3-hydroxypropyl)benzamide], the IC50 in test [1] (setting [3]) was 19 nM; in test [1] (Table 22, compounds of the present invention, read-out: RPIK1 IC50), 19 nM; in test [2] (setting [4]) it was 9.9 nM; in test [2] (Homo sapiens, read-out: pMLKL IC50, Table 22, compounds of the present invention) it was 9.9 nM.
